Results from patent publication US20080194546A1, “Pyrido-, Pyrazo- and Pyrimido-Pyrimidine Derivatives as mTOR Inhibitors” (KuDOS Pharmaceuticals Limited, priority 2005, published 2008).
pIC50: −log10 of the molar value.

Key:
T47D cells = assay: Cell Proliferation Assay (GI50), sulforhodamine B (SRB) assay; type: cell-based; conditions: for GI50: Homo sapiens, 120 hours, SRB
Description: Cell growth was assessed using the sulforhodamine B (SRB) assay (A). T47D (ECACC, 85102201) cells were routinely passaged in RPMI (Invitrogen, 42401018) plus 10% foetal calf serum (FCS), 1% L-glutamine (Gibco BRL, 25030) to a confluence not greater than 80%. To undertake the assay, T47D cells were seeded at 2.5×10^3 cells/well in […] RPMI plus 10% foetal calf serum, 1% L-glutamine in 96 well plates (Costar, 3904) and incubated at 37° C. (+5% CO2) in a humidified incubator. Once the cells had fully adhered (typically following 4-5 hours incubation) the plate was removed from the incubator and 10 μL of the diluent added to the control wells (A1-12 and B1-12). Compound was prepared in a six point semi-log dilution at 10× the final concentration required e.g. for a 6 point range of 30 μM to 100 nM in semi-log steps dilution started at 300 μM in stock plate. Dosing was completed by addition of 10 μL of compound at highest concentration to C1-12 through to the lowest concentration in H1-12. The plates were then incubated for 120 hours prior to SRB analysis.
Upon completion of incubation, media was removed and the cells fixed with […] of ice cold 10% (w/v) trichloroacetic acid. The plates were incubated at 4° C. for 20 minutes and then washed four times with water. Each well of cells was then stained with 100 μl of 0.4% (w/v) SRB (Sulforhodamine B, Sigma, Poole, Dorset, UK, Catalogue number S-9012) in 1% acetic acid for 20 minutes before washing four times with 1% acetic acid. Plates were then dried for 2 hours at room temperature. The dye from the stained cells was solubilized by the addition of 100 μl of 10 mM Tris Base into each well. Plates were gently shaken and left at room temperature for 30 minutes before measuring the optical density at 564 nm on a Microquant microtiter plate reader. The concentration of inhibitor eliciting a 50% reduction in growth (GI50) was determined by analysis of staining intensity of the treated cells as a percentage of the vehicle control wells using Excelfit software.
(A) Skehan, P., Storung, R., Scudiero, R., Monks, A., McMahon, J., Vistica, D., Warren, J. T., Bokesch, H., Kenny, S. and Boyd, M. R. (1990) New […] cytotoxicity assay for anticancer-drug screening. J. Natl. Cancer Inst. 82, 1107-1112.

mTOR = molecular target: T1, mTOR (Homo sapiens, UniProt P42345); assay: Biological Assay: mTOR enzyme activity, mTOR immunoprecipitated from HeLa cell cytoplasmic extract, recombinant PHAS-1 as substrate; type: biochemical; conditions: Biological Assay; for pIC50: upper bounds, read-out: IC50 values against mTOR
T1 construct: mTOR protein was isolated from HeLa cell cytoplasmic extract by immunoprecipitation; endogenous in cells; host or cells: HeLa cell cytoplasmic extract (immunoprecipitate)

GI50 (T47D cells; upper bounds) [nM] | pIC50 (mTOR) | GI50 (T47D cells) [nM] | Structure (SMILES) | GI50 of Comparative Examples compared to the corresponding Examples (T47D cells; comparison in words) | IC50 of Comparative Examples compared to the corresponding Examples (mTOR; comparison in words)
< 300 | > 6.00 | – | COc1ccc(-c2ccc3c(N4CCOCC4)nc(N4C[C@@H](C)O[C@@H](C)C4)nc3n2)cc1CN[C@H](C)c1ccc([N+](=O)[O-])cc1 [Example 8au] | – | –
< 300 | > 7.00 | – | COC[C@H](Cc1ccccc1)NCc1cc(-c2ccc3c(N4CCOCC4)nc(N4C[C@@H](C)O[C@@H](C)C4)nc3n2)ccc1OC [Example 8be] | – | –
< 300 | > 7.00 | – | COc1ccc(-c2ccc3c(N4CCOCC4)nc(N4C[C@@H](C)O[C@@H](C)C4)nc3n2)cc1CNCC1CCCCCC1O (stereo partly drawn) [Example 8ab] | – | –
– | > 7.00 | < 1000 | COc1ccc(-c2ccc3c(N4CCOCC4)nc(N4C[C@@H](C)O[C@@H](C)C4)nc3n2)cc1CNCCc1cnc[nH]1 [Example 8c] | – | –
< 300 | > 6.00 | – | COc1ccc(-c2ccc3c(N4CCOCC4)nc(N4C[C@@H](C)O[C@@H](C)C4)nc3n2)cc1CNc1ccc(OCc2ccccc2)cc1 [Example 8ba] | – | –
< 300 | > 7.00 | – | COc1ccc(-c2ccc3c(N4CCOCC4)nc(N4C[C@@H](C)O[C@@H](C)C4)nc3n2)cc1CNCc1ccc([35Cl])cc1[35Cl] [Example 8aw] | – | –
< 300 | > 7.00 | – | COc1ccc(-c2ccc3c(N4CCOCC4)nc(N4C[C@@H](C)O[C@@H](C)C4)nc3n2)cc1CNCCCCCNC(=O)OC(C)(C)C [Example 8as] | – | –
– | > 6.00 | 232 | C[C@@H]1CN(c2nc(N3CCOCC3)c3ccc(-c4ccco4)nc3n2)C[C@H](C)O1 [Example 1r] | – | –
< 300 | > 7.00 | – | CCSCCNCc1cc(-c2ccc3c(N4CCOCC4)nc(N4C[C@@H](C)O[C@@H](C)C4)nc3n2)ccc1OC [Example 8ak] | – | –
< 300 | > 7.00 | – | COc1ccc(-c2ccc3c(N4CCOCC4)nc(N4C[C@@H](C)O[C@@H](C)C4)nc3n2)cc1CNC1CCCC1 [Example 8k] | – | –
< 300 | > 7.00 | – | COc1ccc(-c2ccc3c(N4CCOCC4)nc(N4C[C@@H](C)O[C@@H](C)C4)nc3n2)cc1CNCc1ccccc1[35Cl] [Example 8ax] | – | –
– | – | – | COc1ccc(-c2ccc3c(N4CCOCC4)nc(N4CCOC[C@@H]4C)nc3n2)cc1CO [Comparative Example 1a, reference compound] | GI50 Comparative Example 1a>GI50 Example 11a | IC50 Comparative Example 1a>IC50 Example 11a
< 300 | > 6.00 | – | CCCCCOc1ccc(NCc2cc(-c3ccc4c(N5CCOCC5)nc(N5C[C@@H](C)O[C@@H](C)C5)nc4n3)ccc2OC)cc1 [Example 8bf] | – | –
< 300 | > 7.00 | – | COc1ccc(-c2ccc3c(N4CCOCC4)nc(N4C[C@@H](C)O[C@@H](C)C4)nc3n2)cc1CNC1CCC1 [Example 8a] | – | –
< 300 | > 7.00 | – | COc1ccc(-c2ccc3c(N4CCOCC4)nc(N4C[C@@H](C)O[C@@H](C)C4)nc3n2)cc1CNCCC1CCCN1C (stereo partly drawn) [Example 8ai] | – | –
< 300 | > 6.00 | – | COc1ccc(-c2ccc3c(N4CCOCC4)nc(N4C[C@@H](C)O[C@@H](C)C4)nc3n2)cc1CNCCSCc1ccc(CN(C)C)o1 [Example 8ae] | – | –
– | > 6.00 | < 1000 | COCCNCc1cc(-c2ccc3c(N4CCOCC4)nc(N4C[C@@H](C)O[C@@H](C)C4)nc3n2)ccc1OC [Example 8v] | – | –
< 300 | > 7.00 | – | COc1ccc(-c2ccc3c(N4CCOCC4)nc(N4C[C@@H](C)O[C@@H](C)C4)nc3n2)cc1CNCCc1cccs1 [Example 8an] | – | –
– | > 7.00 | < 1000 | COc1ccc(CCNCc2cc(-c3ccc4c(N5CCOCC5)nc(N5C[C@@H](C)O[C@@H](C)C5)nc4n3)ccc2OC)cc1 [Example 8e] | – | –
< 300 | > 7.00 | – | COc1ccc(-c2ccc3c(N4CCOCC4)nc(N4C[C@@H](C)O[C@@H](C)C4)nc3n2)cc1CNCc1ccc(F)cc1 [Example 8ah] | – | –

GI50 (T47D cells; upper bounds) [nM] | pIC50 (mTOR) | GI50 (T47D cells) [nM] | Structure (SMILES) | GI50 of Comparative Examples compared to the corresponding Examples (T47D cells; comparison in words) | IC50 of Comparative Examples compared to the corresponding Examples (mTOR; comparison in words)
< 300 | > 6.00 | – | COc1ccc(-c2ccc3c(N4CCOCC4)nc(N4C[C@@H](C)O[C@@H](C)C4)nc3n2)cc1CNc1ccc(N2CCOCC2)cc1 [Example 8ay] | – | –
< 300 | > 6.00 | – | COc1ccc(-c2ccc3c(N4CCOCC4)nc(N4C[C@@H](C)O[C@@H](C)C4)nc3n2)cc1CNC(=S)N1CCCCC1 [Example 8am] | – | –
– | > 6.00 | < 1000 | COc1ccc(-c2ccc3c(N4CCOCC4)nc(N4C[C@@H](C)O[C@@H](C)C4)nc3n2)cc1CNCCC(C)(C)C [Example 8q] | – | –
– | > 7.00 | < 1000 | COc1ccc(-c2ccc3c(N4CCOCC4)nc(N4C[C@@H](C)O[C@@H](C)C4)nc3n2)cc1CNC1CCCCC1 [Example 8o] | – | –
– | > 6.00 | < 1000 | COc1ccc(-c2ccc3c(N4CCOCC4)nc(N4C[C@@H](C)O[C@@H](C)C4)nc3n2)cc1CNC1CCC(C)CC1 (stereo partly drawn) [Example 8p] | – | –
< 300 | > 6.00 | – | COc1ccc(-c2ccc3c(N4CCOCC4)nc(N4C[C@@H](C)O[C@@H](C)C4)nc3n2)cc1CNC(c1ccccc1)c1ccccc1 [Example 8az] | – | –
– | > 6.00 | < 1000 | COc1ccc(-c2ccc3c(N4CCOCC4)nc(N4C[C@@H](C)O[C@@H](C)C4)nc3n2)cc1CNC1CCCCC1C (stereo partly drawn) [Example 8w] | – | –
< 300 | > 7.00 | – | C[C@H]1CCCCN1c1nc(N2CCOCC2)c2ccc(-c3ccc(Cl)cc3)nc2n1 [Example 1g] | – | –
< 300 | > 6.00 | – | C=CCOC(=O)[C@H](CC(C)C)NCc1cc(-c2ccc3c(N4CCOCC4)nc(N4C[C@@H](C)O[C@@H](C)C4)nc3n2)ccc1OC [Example 8af] | – | –
< 300 | > 7.00 | – | COc1ccc(-c2ccc3c(N4CCOCC4)nc(N4C[C@@H](C)O[C@@H](C)C4)nc3n2)cc1CNC1CCc2ccccc21 (stereo partly drawn) [Example 8av] | – | –
– | > 6.00 | < 1000 | COc1ccc(-c2ccc3c(N4CCOCC4)nc(N4C[C@@H](C)O[C@@H](C)C4)nc3n2)cc1CNC(Cc1ccc([N+](=O)[O-])cc1)C(=O)O (stereo partly drawn) [Example 8y] | – | –
< 300 | > 6.00 | – | COc1ccc(-c2ccc3c(N4CCOCC4)nc(N4C[C@@H](C)O[C@@H](C)C4)nc3n2)cc1CNC(C)C [Example 8r] | – | –
– | > 5.00 | < 1000 | COc1ccc(-c2ccc3c(N4CCOCC4)nc(N4C[C@@H](C)O[C@@H](C)C4)nc3n2)cc1CNCc1cccc(OC)c1OC [Example 8z] | – | –
< 300 | > 6.00 | – | COC(=O)[C@H](NCc1cc(-c2ccc3c(N4CCOCC4)nc(N4C[C@@H](C)O[C@@H](C)C4)nc3n2)ccc1OC)c1ccccc1 [Example 8ao] | – | –
< 300 | > 7.00 | – | COc1ccc(-c2ccc3c(N4CCOCC4)nc(N4C[C@@H](C)O[C@@H](C)C4)nc3n2)cc1CNC1CC1 [Example 8b] | – | –
< 300 | > 6.00 | – | COc1ccc(-c2ccc3c(N4CCOCC4)nc(N4C[C@@H](C)O[C@@H](C)C4)nc3n2)cc1CNC(C)CC(C)C (stereo partly drawn) [Example 8t] | – | –
< 300 | > 7.00 | – | COc1ccc(-c2ccc3c(N4CCOCC4)nc(N4C[C@@H](C)O[C@@H](C)C4)nc3n2)cc1CNCc1ccc2c(c1)OCO2 [Example 8bg] | – | –
< 300 | > 7.00 | – | COc1ccc(-c2ccc3c(N4CCOCC4)nc(N4C[C@@H](C)O[C@@H](C)C4)nc3n2)cc1CNCCCc1ccccc1 [Example 8bc] | – | –
– | > 7.00 | < 1000 | COc1ccc(-c2ccc3c(N4CCOCC4)nc(N4C[C@@H](C)O[C@@H](C)C4)nc3n2)cc1CNCCC(C)C [Example 8m] | – | –
